Eight compounds from ChEMBL document CHEMBL1201862, “PubChem BioAssay data set” (2004) can be followed below.

Among the test systems are K562; PC-3; NCI/ADR-RES; NCI-H23; SW-620; SK-MEL-5; TK-10; HCT-15; UACC-257; OVCAR-3; SK-OV-3; BT-549; RXF 393; M14; EKVX; CCRF-CEM; A498; SF-268; OVCAR-4; SR.
Holding throughout (assay): NCI anticancer screen, dose series, 48 h

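Method: 48-hour compound exposure of cells in 96-well plates, five concentrations, linear interpolation of endpoints. The concentration for 50% growth inhibition is given as GI50.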 Activity calls are given as the source filed them. Cut-off read from the data, not from the text of the source: active = GI50 up to about 1.1 µM and inactive = higher.

For `Cc1[nH]c(C)c(CN(C)C)c1CN(C)C`, the GI50 in the experiment with K562, with PC-3, in the experiment on NCI/ADR-RES, in the experiment on NCI-H23, with SW-620 and in the experiment with SK-MEL-5 was > 100 µM (inactive) in each case. The GI50 with TK-10 is > 100 µM (inactive); in the experiment on HCT-15 it was over 100 µM; with UACC-257, > 100 µM (inactive); in the experiment on OVCAR-3 it was > 100 µM (inactive); in the experiment on SK-OV-3, > 100 µM (inactive); in the experiment with BT-549 it was > 100 µM (inactive). The GI50 with RXF 393, in the experiment on M14, in the experiment on EKVX, in the experiment on CCRF-CEM, in the experiment with A498 and in the experiment with SF-268 was > 100 µM (inactive) throughout. In addition, the GI50 with OVCAR-4 is > 100 µM (inactive).
Take `O=c1ccn(C2OC(CN(O)CCC3C(CO)OC(n4ccc(=O)[nH]c4=O)C3O)C(O)C2O)c(=O)[nH]1` (stereo not drawn): the GI50 in the experiment on K562, in the experiment with PC-3, with NCI/ADR-RES, in the experiment on NCI-H23, in the experiment with SW-620 and in the experiment on SK-MEL-5 was > 100 µM (inactive) each time. The GI50 is > 100 µM (inactive) with TK-10; over 100 µM with HCT-15; > 100 µM (inactive) in the experiment on UACC-257; > 100 µM (inactive) in the experiment on OVCAR-3; > 100 µM (inactive) in the experiment with SK-OV-3; > 100 µM (inactive) in the experiment with BT-549. Further, the GI50 in the experiment on RXF 393, in the experiment with M14, in the experiment on EKVX, in the experiment with CCRF-CEM, with A498 and with SF-268 was > 100 µM (inactive) throughout. Moreover, in the experiment on OVCAR-4, the GI50 was > 100 µM (inactive).
In the case of `O=C(NCCC1CN(C(=O)OCc2ccccc2)c2ccccc21)OCc1ccccc1` (stereo not drawn), the GI50 with K562, with PC-3, with NCI/ADR-RES, with NCI-H23, in the experiment with SW-620 and in the experiment on SK-MEL-5 was > 100 µM (inactive) throughout. The GI50 in the experiment with TK-10 was > 100 µM (inactive); in the experiment with HCT-15, over 100 µM; in the experiment with UACC-257, > 100 µM (inactive); in the experiment on OVCAR-3, > 100 µM (inactive); with SK-OV-3, > 100 µM (inactive); with BT-549 it was > 100 µM (inactive). Moreover, the GI50 was > 100 µM (inactive) in the experiment with RXF 393; > 100 µM (inactive) in the experiment on M14; 64.6 µM (inactive) in the experiment with EKVX; > 100 µM (inactive) in the experiment on A498; > 100 µM (inactive) in the experiment with SF-268; > 100 µM (inactive) with OVCAR-4.
Take `COc1ccc2nc3cc([N+](=O)[O-])ccc3c(Nc3ccc(S(=O)(=O)NC(C)=O)cc3)c2c1`: the GI50 is 37.2 µM (inactive) in the experiment with K562; 45.5 µM (inactive) in the experiment with PC-3; > 100 µM (inactive) in the experiment on NCI-H23; 46.8 µM (inactive) with SW-620; 16.6 µM (inactive) in the experiment on SK-MEL-5; 53.2 µM (inactive) with TK-10. The GI50 with HCT-15 was 71.1 µM; with UACC-257, > 100 µM (inactive); in the experiment with OVCAR-3, 38.1 µM (inactive); in the experiment with SK-OV-3, > 100 µM (inactive); in the experiment on BT-549, > 100 µM (inactive); with RXF 393 it was > 100 µM (inactive). Also, the GI50 was > 100 µM (inactive) in the experiment with M14; 85.3 µM (inactive) in the experiment on EKVX; 11.5 µM (inactive) in the experiment with SR; 23.9 µM (inactive) with CCRF-CEM; > 100 µM (inactive) in the experiment with A498; > 100 µM (inactive) with SF-268. Besides, the GI50 in the experiment with OVCAR-4 is > 100 µM (inactive).
Take `Cc1ccsc1/C=N/Nc1ncccn1`: the GI50 in the experiment on K562, in the experiment with PC-3, in the experiment with NCI/ADR-RES, with NCI-H23, in the experiment with SW-620 and in the experiment with SK-MEL-5 was > 100 µM (inactive) each time. Further, the GI50 in the experiment with TK-10 was > 100 µM (inactive); in the experiment on HCT-15, over 100 µM; with UACC-257, > 100 µM (inactive); with OVCAR-3 it was > 100 µM (inactive); in the experiment on SK-OV-3, > 100 µM (inactive); in the experiment with BT-549 it was > 100 µM (inactive). The GI50 in the experiment on RXF 393, in the experiment with M14, with EKVX, with CCRF-CEM, in the experiment with A498 and in the experiment on SF-268 was > 100 µM (inactive) in each case. Also, in the experiment on OVCAR-4, the GI50 is > 100 µM (inactive).
As to `Clc1ccc(C2=NCON=C2c2ccc(Cl)cc2)cc1`, the GI50 in the experiment with K562 was 23.9 µM (inactive); in the experiment with PC-3 it was 18.2 µM (inactive); in the experiment on NCI/ADR-RES, 21.5 µM (inactive); in the experiment with NCI-H23 it was 16.8 µM (inactive); with SW-620, 19.9 µM (inactive); in the experiment with SK-MEL-5, 16.6 µM (inactive). Besides, the GI50 was 23.9 µM (inactive) with TK-10; 19.4 µM with HCT-15; 25.1 µM (inactive) with UACC-257; 15.8 µM (inactive) in the experiment with OVCAR-3; 14.5 µM (inactive) with SK-OV-3; 19.5 µM (inactive) in the experiment with BT-549. The GI50 is 18.7 µM (inactive) in the experiment with RXF 393; 15.1 µM (inactive) in the experiment with EKVX; 24.3 µM (inactive) in the experiment with CCRF-CEM; 19.7 µM (inactive) with SF-268; 27.4 µM (inactive) in the experiment on OVCAR-4.
With `O=c1cc(-c2cccnc2)[nH]c2cc3c(cc12)OCO3`, the GI50 in the experiment with K562 was 5.07 µM (inactive); in the experiment with PC-3, 11 µM (inactive); with NCI/ADR-RES it was 14.8 µM (inactive); in the experiment with NCI-H23 it was 10.3 µM (inactive); with SW-620, 6.38 µM (inactive); with SK-MEL-5, 2.73 µM (inactive). Moreover, the GI50 is 41.6 µM (inactive) with TK-10; 3.9 µM in the experiment on HCT-15; > 26.5 µM (inactive) with UACC-257; 2.81 µM (inactive) with OVCAR-3; > 20.9 µM (inactive) in the experiment with SK-OV-3; 30.3 µM (inactive) in the experiment with BT-549. For the same compound, the GI50 in the experiment with RXF 393 is 9.02 µM (inactive); in the experiment on M14, 4.59 µM (inactive); in the experiment with CCRF-CEM, 6.65 µM (inactive); in the experiment on A498, 10.7 µM (inactive); in the experiment with SF-268, 12.9 µM (inactive); in the experiment on OVCAR-4 it was > 73.3 µM (inactive).
Turning to `CC(=O)OC12c3ccccc3-c3ccccc3C1C1C(=O)N(C)C(=O)C12Cl` (stereo not drawn), the GI50 in the experiment with K562, with PC-3, with NCI/ADR-RES, in the experiment on NCI-H23, in the experiment with SW-620 and in the experiment on SK-MEL-5 was > 10 µM (inactive) in each case. For the same compound, the GI50 was > 10 µM (inactive) with TK-10; over 10 µM in the experiment on HCT-15; > 10 µM (inactive) in the experiment on UACC-257; > 10 µM (inactive) in the experiment with OVCAR-3; > 10 µM (inactive) in the experiment on SK-OV-3; > 10 µM (inactive) in the experiment on RXF 393. The GI50 in the experiment with M14, with EKVX, with SR, with CCRF-CEM, in the experiment on A498 and in the experiment on SF-268 was > 10 µM (inactive) each time. Further, the GI50 with OVCAR-4 was > 10 µM (inactive).
